Test system: MV-4-11 cells
Test: Gene expression microarray analysis (Affymetrix PrimeView) and GSEA
Format: cell-based, human
Design: RFU PODN (11730768_x_at) / Fold change /veh PODN (11730768_x_at) / RFU LINC00158 (11744669_a_at) / Fold change /veh LINC00158 (11744669_a_at) / RFU DUSP10 (11751237_a_at) / Fold change /veh DUSP10 (11751237_a_at) / RFU ID3 (11757404_x_at) / Fold change /veh ID3 (11757404_x_at) / RFU PLEKHG5 (11737974_s_at) / Fold change /veh PLEKHG5 (11737974_s_at) / RFU LRRC4B (11730491_at) / Fold change /veh LRRC4B (11730491_at) / RFU GIMAP4 (11747438_a_at) / Fold change /veh GIMAP4 (11747438_a_at) / RFU KRT8 (11758183_x_at) / Fold change /veh KRT8 (11758183_x_at) / RFU CNN1 (11734310_a_at) / Fold change /veh CNN1 (11734310_a_at) / RFU VPS37D (11726825_at) / Fold change /veh VPS37D (11726825_at) / RFU C10orf10 (11716522_x_at) / Fold change /veh C10orf10 (11716522_x_at) / RFU KIR2DL2 /// KIR2DL4 /// KIR2DL5A /// KIR2DL5B /// KIR2DS1 /// KIR2DS2 /// KIR2DS3 /// KIR2DS4 /// KIR3DL3 /// KIR3DL3 /// KIR3DS1 (11738374_at) / Fold change /veh KIR2DL2 /// KIR2DL4 /// KIR2DL5A /// KIR2DL5B /// KIR2DS1 /// KIR2DS2 /// KIR2DS3 /// KIR2DS4 /// KIR3DL3 /// KIR3DL3 /// KIR3DS1 (11738374_at) / RFU C1QL1 (11718748_at) / Fold change /veh C1QL1 (11718748_at) / RFU TMPRSS4 (11747572_a_at) / Fold change /veh TMPRSS4 (11747572_a_at) / RFU HAMP (11756126_x_at) / Fold change /veh HAMP (11756126_x_at) / RFU RNFT2 (11725882_a_at) / Fold change /veh RNFT2 (11725882_a_at) / RFU NR4A2 (11747474_a_at) / Fold change /veh NR4A2 (11747474_a_at) / RFU ABCC12 (11746883_a_at) / Fold change /veh ABCC12 (11746883_a_at) / RFU TMEM136 (11760407_x_at) / Fold change /veh TMEM136 (11760407_x_at) / RFU CLDN22 /// WWC2 (11732394_at) / Fold change /veh CLDN22 /// WWC2 (11732394_at) / RFU HLA-DPB1 (11760878_x_at) / Fold change /veh HLA-DPB1 (11760878_x_at) / RFU SPINT1 (11716480_a_at) / Fold change /veh SPINT1 (11716480_a_at) / RFU GAP43 (11754022_s_at) / Fold change /veh GAP43 (11754022_s_at) / RFU A4GNT (11735810_at) / Fold change /veh A4GNT (11735810_at) / RFU PRB3 (11715151_x_at) / Fold change /veh PRB3 (11715151_x_at) / RFU TUBB4B (11761932_at) / Fold change /veh TUBB4B (11761932_at) / RFU CAPN14 (11732068_a_at) / Fold change /veh CAPN14 (11732068_a_at) / RFU TMCC2 (11721928_a_at) / Fold change /veh TMCC2 (11721928_a_at) / RFU IRGQ (11745062_a_at) / Fold change /veh IRGQ (11745062_a_at) / RFU FAM174B (11720279_a_at) / Fold change /veh FAM174B (11720279_a_at) / RFU TMPRSS4 (11748680_a_at) / Fold change /veh TMPRSS4 (11748680_a_at) / RFU FAM212B (11763350_a_at) / Fold change /veh FAM212B (11763350_a_at) / RFU PLEKHG5 (11743358_a_at) / Fold change /veh PLEKHG5 (11743358_a_at) / RFU ZSCAN30 (11745921_a_at) / Fold change /veh ZSCAN30 (11745921_a_at) / RFU CMKLR1 (11741424_a_at) / Fold change /veh CMKLR1 (11741424_a_at) / RFU LOC101060620 /// MAPK8IP1 (11723275_at) / Fold change /veh LOC101060620 /// MAPK8IP1 (11723275_at) / RFU SPTSSB (11747773_x_at) / Fold change /veh SPTSSB (11747773_x_at) / RFU PRSS12 (11739890_at) / Fold change /veh PRSS12 (11739890_at) / RFU BIN1 (11741810_x_at) / Fold change /veh BIN1 (11741810_x_at) / RFU WNT11 (11732464_a_at) / Fold change /veh WNT11 (11732464_a_at) / RFU C10orf10 (11716521_a_at) / Fold change /veh C10orf10 (11716521_a_at) / RFU C5orf56 (11738089_at) / Fold change /veh C5orf56 (11738089_at) / RFU CYB561 (11721691_x_at) / Fold change /veh CYB561 (11721691_x_at) / RFU ANKRD19P (11752326_a_at) / Fold change /veh ANKRD19P (11752326_a_at) / RFU OR2T12 /// OR2T33 /// OR2T8 (11738714_s_at) / Fold change /veh OR2T12 /// OR2T33 /// OR2T8 (11738714_s_at) / RFU VCAN (11748164_a_at) / Fold change /veh VCAN (11748164_a_at) / RFU JSRP1 (11732532_at) / Fold change /veh JSRP1 (11732532_at) / RFU KRTAP10-11 (11738290_x_at) / Fold change /veh KRTAP10-11 (11738290_x_at) / RFU MYO3A (11730013_a_at) / Fold change /veh MYO3A (11730013_a_at) / RFU EBF3 (11725865_a_at) / Fold change /veh EBF3 (11725865_a_at) / RFU CAMK2N1 (11719241_x_at) / Fold change /veh CAMK2N1 (11719241_x_at) / RFU C5orf56 (11738088_a_at) / Fold change /veh C5orf56 (11738088_a_at) / RFU OLFML3 (11715873_a_at) / Fold change /veh OLFML3 (11715873_a_at) / RFU LOC100653217 /// NTM (11731650_a_at) / Fold change /veh LOC100653217 /// NTM (11731650_a_at) / RFU MAPK11 (11762145_a_at) / Fold change /veh MAPK11 (11762145_a_at) / RFU FIZ1 (11724087_x_at) / Fold change /veh FIZ1 (11724087_x_at) / RFU OASL (11726364_x_at) / Fold change /veh OASL (11726364_x_at) / RFU SOX15 (11748057_x_at) / Fold change /veh SOX15 (11748057_x_at) / RFU CD79A (11719716_a_at) / Fold change /veh CD79A (11719716_a_at) / RFU HIST1H1D (11736915_at) / Fold change /veh HIST1H1D (11736915_at) / RFU CASKIN2 (11723855_a_at) / Fold change /veh CASKIN2 (11723855_a_at) / RFU LOC730098 (11760151_x_at) / Fold change /veh LOC730098 (11760151_x_at) / RFU OR4N2 (11742367_at) / Fold change /veh OR4N2 (11742367_at) / RFU PRRT2 (11749266_a_at) / Fold change /veh PRRT2 (11749266_a_at) / RFU SNX32 (11753110_a_at) / Fold change /veh SNX32 (11753110_a_at) / RFU CDHR5 (11726645_a_at) / Fold change /veh CDHR5 (11726645_a_at) / RFU RCAN1 (11760418_a_at) / Fold change /veh RCAN1 (11760418_a_at) / RFU FAM167A (11723789_a_at) / Fold change /veh FAM167A (11723789_a_at) / RFU FAM26E (11764081_at) / Fold change /veh FAM26E (11764081_at) / RFU ISYNA1 (11749810_s_at) / Fold change /veh ISYNA1 (11749810_s_at) / RFU ACY1 (11761880_at) / Fold change /veh ACY1 (11761880_at) / RFU 11764098_at / Fold change /veh 11764098_at / RFU SAMD14 (11745864_x_at) / Fold change /veh SAMD14 (11745864_x_at) / RFU NPB (11741838_a_at) / Fold change /veh NPB (11741838_a_at) / RFU TMPRSS6 (11731388_a_at) / Fold change /veh TMPRSS6 (11731388_a_at) / RFU KRTAP10-2 (11738614_at) / Fold change /veh KRTAP10-2 (11738614_at) / RFU ARHGAP8 /// PRR5-ARHGAP8 (11727945_x_at) / Fold change /veh ARHGAP8 /// PRR5-ARHGAP8 (11727945_x_at) / RFU KRTAP5-7 /// NADSYN1 (11734609_at) / Fold change /veh KRTAP5-7 /// NADSYN1 (11734609_at) / RFU RASL12 (11751679_a_at) / Fold change /veh RASL12 (11751679_a_at) / RFU CDKN2B (11736163_a_at) / Fold change /veh CDKN2B (11736163_a_at) / RFU PRF1 (11729649_at) / Fold change /veh PRF1 (11729649_at) / RFU, ZNF638 /// ZNF638-IT1 / Fold change vs veh, ZNF638 /// ZNF638-IT1 / RFU, PANK3 / Fold change vs veh, PANK3 / RFU, SH3YL1 / Fold change vs veh, SH3YL1 / RFU, ZEB2 / Fold change vs veh, ZEB2 / RFU, NRIP1 / Fold change vs veh, NRIP1 / RFU, PTTG1IP / Fold change vs veh, PTTG1IP / RFU, CAPN2 / Fold change vs veh, CAPN2 / RFU, MED14 / Fold change vs veh, MED14 / RFU, SNORA58 / Fold change vs veh, SNORA58 / RFU, C1orf63 / Fold change vs veh, C1orf63 / RFU, LRRFIP1 / Fold change vs veh, LRRFIP1 / RFU, NDUFAF7 / Fold change vs veh, NDUFAF7 / RFU, SLC12A2 / Fold change vs veh, SLC12A2 / RFU, IBTK / Fold change vs veh, IBTK / RFU, ESF1 / Fold change vs veh, ESF1 / Fold change vs veh, TMEM50B / RFU, TAOK1 / Fold change vs veh, TAOK1 / RFU, ACBD3 / Fold change vs veh, ACBD3 / RFU, TMA16 / Fold change vs veh, TMA16 / RFU, RWDD3 / Fold change vs veh, RWDD3 / RFU, BCAT1 / Fold change vs veh, BCAT1 / RFU, EDEM3 / Fold change vs veh, EDEM3 / RFU, TMEM33 / Fold change vs veh, TMEM33 / RFU, WDR75 / Fold change vs veh, WDR75 / RFU, AHCTF1 / Fold change vs veh, AHCTF1 / RFU, TFRC / Fold change vs veh, TFRC / RFU, ZDHHC17 / Fold change vs veh, ZDHHC17 / RFU, NOM1 / Fold change vs veh, NOM1 / RFU, ARL8B / Fold change vs veh, ARL8B / RFU, ZBTB11 / Fold change vs veh, ZBTB11 / RFU, TAMM41 / Fold change vs veh, TAMM41 / RFU, KIAA1704 /// LOC100996395 / Fold change vs veh, KIAA1704 /// LOC100996395 / RFU, ING1 / Fold change vs veh, ING1 / RFU, TRMT61B / Fold change vs veh, TRMT61B / RFU, FUBP3 / Fold change vs veh, FUBP3 / RFU, TP53 / Fold change vs veh, TP53 / RFU, TNKS2 / Fold change vs veh, TNKS2 / RFU, ZFP14 / Fold change vs veh, ZFP14 / RFU, ACTR2 / Fold change vs veh, ACTR2 / RFU, PPP3R1 / Fold change vs veh, PPP3R1 / RFU, PIK3R1 / Fold change vs veh, PIK3R1 / RFU, HNRNPA1 / Fold change vs veh, HNRNPA1 / RFU, RNF170 / Fold change vs veh, RNF170 / RFU, ZNF28 / Fold change vs veh, ZNF28 / RFU, RNGTT / Fold change vs veh, RNGTT / RFU, OGT / Fold change vs veh, OGT / RFU, BRD1 / Fold change vs veh, BRD1 / RFU, MARS / Fold change vs veh, MARS / RFU, ZNF655 / Fold change vs veh, ZNF655 / RFU, FAHD1 / Fold change vs veh, FAHD1 / RFU, BDP1 / Fold change vs veh, BDP1 / RFU, LRRCC1 / Fold change vs veh, LRRCC1 / RFU, ARID1A / Fold change vs veh, ARID1A / RFU, ZNF146 / Fold change vs veh, ZNF146 / RFU, ZNF330 / Fold change vs veh, ZNF330 / RFU, GPN3 / Fold change vs veh, GPN3 / RFU, C9orf123 / Fold change vs veh, C9orf123 / RFU, N4BP2L2 / Fold change vs veh, N4BP2L2 / RFU, ARFIP1 / Fold change vs veh, ARFIP1 / RFU, FAM179B / Fold change vs veh, FAM179B / RFU, BCL10 / Fold change vs veh, BCL10 / RFU, UHRF1BP1L / Fold change vs veh, UHRF1BP1L / RFU, BET1 / Fold change vs veh, BET1 / RFU, CNOT2 / Fold change vs veh, CNOT2 / RFU, ZNF268 / Fold change vs veh, ZNF268 / Fold change vs veh, ZNF507 / RFU, DGCR2 / Fold change vs veh, DGCR2 / RFU, WDSUB1 / Fold change vs veh, WDSUB1 / Fold change vs veh, HSP90B1 /// MIR3652 / RFU, ADSS / Fold change vs veh, ADSS / RFU, GK / Fold change vs veh, GK / RFU, ZNF148 / Fold change vs veh, ZNF148 / RFU, TAF9 / Fold change vs veh, TAF9 / RFU, SLC1A5 / Fold change vs veh, SLC1A5 / RFU, SLMO2 / Fold change vs veh, SLMO2 / RFU, ABCC4 / Fold change vs veh, ABCC4 / RFU, LOC101060439 /// RAP1B / Fold change vs veh, LOC101060439 /// RAP1B / RFU, RFX7 / Fold change vs veh, RFX7 / RFU, GTPBP10 / Fold change vs veh, GTPBP10 / RFU, CNEP1R1 / Fold change vs veh, CNEP1R1 / RFU, BIVM-ERCC5 /// ERCC5 / Fold change vs veh, BIVM-ERCC5 /// ERCC5 / RFU, ILF3 / Fold change vs veh, ILF3 / RFU 11762660_at / Fold change /veh 11762660_at / RFU VCAN (11757783_s_at) / Fold change /veh VCAN (11757783_s_at) / RFU DDX43 (11728927_at) / Fold change /veh DDX43 (11728927_at) / RFU KRT8 (11758188_x_at) / Fold change /veh KRT8 (11758188_x_at) / RFU NKD1 (11759106_at) / Fold change /veh NKD1 (11759106_at) / RFU SRD5A1 (11742802_a_at) / Fold change /veh SRD5A1 (11742802_a_at) / RFU TPSAB1 /// TPSB2 (11721975_s_at) / Fold change /veh TPSAB1 /// TPSB2 (11721975_s_at) / RFU GSTM3 (11746129_a_at) / Fold change /veh GSTM3 (11746129_a_at) / RFU IL23R (11737362_x_at) / Fold change /veh IL23R (11737362_x_at) / RFU TMEM51 (11727254_a_at) / Fold change /veh TMEM51 (11727254_a_at) / RFU PIWIL2 (11732686_x_at) / Fold change /veh PIWIL2 (11732686_x_at) / RFU ORM1 (11744905_x_at) / Fold change /veh ORM1 (11744905_x_at) / RFU CCDC152 (11743942_at) / Fold change /veh CCDC152 (11743942_at) / RFU ECM1 (11717891_a_at) / Fold change /veh ECM1 (11717891_a_at) / RFU IL23R (11748794_a_at) / Fold change /veh IL23R (11748794_a_at) / RFU TNFAIP8L3 (11732012_x_at) / Fold change /veh TNFAIP8L3 (11732012_x_at) / RFU MBOAT4 (11741988_at) / Fold change /veh MBOAT4 (11741988_at) / RFU 11764193_at / Fold change /veh 11764193_at / RFU TMEM53 (11763286_at) / Fold change /veh TMEM53 (11763286_at) / RFU MAGEB2 (11727129_at) / Fold change /veh MAGEB2 (11727129_at) / RFU TMEM200A (11744735_a_at) / Fold change /veh TMEM200A (11744735_a_at) / RFU CCDC152 (11751479_a_at) / Fold change /veh CCDC152 (11751479_a_at) / RFU FAM211A (11726209_a_at) / Fold change /veh FAM211A (11726209_a_at) / RFU RGS16 (11746705_a_at) / Fold change /veh RGS16 (11746705_a_at) / RFU VCAN (11755009_s_at) / Fold change /veh VCAN (11755009_s_at) / RFU RHOB (11743442_s_at) / Fold change /veh RHOB (11743442_s_at) / RFU RGS16 (11720943_a_at) / Fold change /veh RGS16 (11720943_a_at) / RFU RGS16 (11720944_at) / Fold change /veh RGS16 (11720944_at) / RFU, VPS4B / Fold change vs veh, VPS4B / RFU, CREB1 / Fold change vs veh, CREB1 / RFU, DNAJC13 / Fold change vs veh, DNAJC13 / RFU, GNAQ / Fold change vs veh, GNAQ / RFU, CDK5R1 / Fold change vs veh, CDK5R1 / RFU, ZRANB3 / Fold change vs veh, ZRANB3 / RFU, CUL4A / Fold change vs veh, CUL4A / RFU, CCNY / Fold change vs veh, CCNY / RFU, UFL1 / Fold change vs veh, UFL1 / RFU, COG3 / Fold change vs veh, COG3 / RFU, DIAPH2 / Fold change vs veh, DIAPH2 / RFU, SKA2 / Fold change vs veh, SKA2 / RFU, AFF3 / Fold change vs veh, AFF3 / RFU, LMF1 / Fold change vs veh, LMF1 / RFU, IPO11 / Fold change vs veh, IPO11 / RFU, DFFB / Fold change vs veh, DFFB / RFU, FOXP1 / Fold change vs veh, FOXP1 / RFU, CARD8 / Fold change vs veh, CARD8 / RFU, STRN3 / Fold change vs veh, STRN3 / RFU, ADK / Fold change vs veh, ADK / RFU, RASSF2 / Fold change vs veh, RASSF2 / RFU, WIPF1 / Fold change vs veh, WIPF1 / RFU, LARP1B / Fold change vs veh, LARP1B / RFU, RASA1 / Fold change vs veh, RASA1 / RFU, RB1 / Fold change vs veh, RB1 / RFU, PPFIA1 / Fold change vs veh, PPFIA1 / RFU, MAT2A / Fold change vs veh, MAT2A / RFU, CCT5 / Fold change vs veh, CCT5 / RFU, WDR92 / Fold change vs veh, WDR92 / RFU, CUX1 / Fold change vs veh, CUX1 / RFU, TTC7A / Fold change vs veh, TTC7A / RFU, TMEM135 / Fold change vs veh, TMEM135 / RFU, DEPTOR / Fold change vs veh, DEPTOR / RFU, CPM / Fold change vs veh, CPM / RFU, DNAJB6 / Fold change vs veh, DNAJB6 / RFU, CACNA2D3 / Fold change vs veh, CACNA2D3 / RFU, DTX4 / Fold change vs veh, DTX4 / RFU, TFCP2 / Fold change vs veh, TFCP2 / RFU, GMCL1 /// GMCL1P1 / Fold change vs veh, GMCL1 /// GMCL1P1 / RFU, AEBP2 / Fold change vs veh, AEBP2 / RFU, SNHG1 /// SNORD22 /// SNORD25 /// SNORD26 /// SNORD27 /// SNORD28 /// SNORD29 /// SNORD31 / Fold change vs veh, SNHG1 /// SNORD22 /// SNORD25 /// SNORD26 /// SNORD27 /// SNORD28 /// SNORD29 /// SNORD31 / Fold change (Aza/veh), C12orf56 (ProbeSet 11735607_a_at) / Fold change (ACY-1035/veh), C12orf56 (ProbeSet 11735607_a_at) / Fold change (Aza/veh), FGFR1OP (ProbeSet 11751329_s_at) / Fold change (ACY-1035/veh), FGFR1OP (ProbeSet 11751329_s_at) / Fold change (Aza/veh), VPS36 (ProbeSet 11739960_a_at) / Fold change (ACY-1035/veh), VPS36 (ProbeSet 11739960_a_at) / RFU SYPL1 (11715823_x_at) / Fold change /veh SYPL1 (11715823_x_at) / RFU IGFBP7 (11715501_s_at) / Fold change /veh IGFBP7 (11715501_s_at) / RFU REEP3 (11722064_at) / Fold change /veh REEP3 (11722064_at) / RFU IGLL1 (11728026_x_at) / Fold change /veh IGLL1 (11728026_x_at): dose or concentration left out as unconfirmed
Conditions: MV-4-11 cells, 48 hours

Nc1ncn([C@@H]2O[C@H](CO)[C@@H](O)[C@H]2O)c(=O)n1 [azacitidine]
Fold change /veh VPS37D (11726825_at): 1.12
